Experimental data as given in patent US10570116B2, “1,4-dicarbonyl-piperidyl derivatives” (Merck Patent GmbH, priority 2015, dated 2020).
Like-named read-outs stand apart in the source and are kept apart here.

Tests used:
[1] = tested on: Tankyrases; assay: Measurement of cellular inhibition of Tankyrase (Axin2 level, Luminex based assay, DLD1 cells); assay type: cell-based; conditions: increase of Axin2 level, 24 hours, read-out: EC50 [M] TNKS cellular assay
[2] = biological target: TNKS1 (Homo sapiens (Human), UniProt O95271); assay: biochemical; assay type: biochemical
[3] = biological target: TNKS2 (Homo sapiens (Human), UniProt Q9H2K2); assay: biochemical; assay type: biochemical
[4] = GST-tagged Tnks-1 (1023-1327 aa), read-out: IC50 [M] TNKS1 ELISA
[5] = GST-tagged Tnks-2 (873-1166 aa), read-out: IC50 [M] TNKS2 ELISA

Structure (SMILES) | EC50 [1] [M] | IC50 [2, 4] [M] | IC50 [3, 5] [M] | IC50 [2] [M] | IC50 [3] [M]
CC(C)CC(CC(=O)N1CCC(C(=O)c2cnn(C)c2)CC1)Cc1nc2ccccc2c(=O)[nH]1 (stereo in doubt) [Compound C10, 2-((S)-4-Methyl-2-{2-[4-(1-methyl-1H-pyrazole-4-carbonyl)-piperidin-1-yl]-2-oxo-ethyl}-pentyl)-3H-quinazolin-4-one] | 9e-08 | – | – | – | –
CC(C)CC(CC(=O)N1CCC(C(=O)c2cnn(C)c2)CC1)Cc1nc2ccccc2c(=O)[nH]1 (stereo in doubt) [Compound C11, 2-((R)-4-Methyl-2-{2-[4-(1-methyl-1H-pyrazole-4-carbonyl)-piperidin-1-yl]-2-oxo-ethyl}-pentyl)-3H-quinazolin-4-one] | 5e-09 | – | – | – | –
Cn1cc(C(=O)C2CCN(C(=O)CC(C)(C)Cc3nc4ccccc4c(=O)[nH]3)CC2)cn1 [Compound C1, 2-{2,2-Dimethyl-4-[4-(1-methyl-1H-pyrazole-4-carbonyl)-piperidin-1-yl]-4-oxo-butyl}-3H-quinazolin-4-one] | 4.5e-09 | 5.7e-10 | 3.7e-10 | – | –
C[C@H](CC(=O)N1CCC(C(=O)c2cnn(C)c2)CC1)Cc1nc2ccccc2c(=O)[nH]1 [Compound C2, 2-{(S)-2-Methyl-4-[4-(1-methyl-1H-pyrazole-4-carbonyl)-piperidin-1-yl]-4-oxo-butyl}-3H-quinazolin-4-one] | 4.7e-09 | – | – | – | –
C[C@@H](CC(=O)N1CCC(C(=O)c2cnn(C)c2)CC1)Cc1nc2ccccc2c(=O)[nH]1 [Compound C3, 2-{(R)-2-Methyl-4-[4-(1-methyl-1H-pyrazole-4-carbonyl)-piperidin-1-yl]-4-oxo-butyl}-3H-quinazolin-4-one] | 3e-08 | – | – | – | –
CC(C)n1cc(C(=O)C2CCN(C(=O)C[C@@H](C)Cc3nc4ccccc4c(=O)[nH]3)CC2)cn1 [Compound C4, 2-{(S)-4-[4-(1-Isopropyl-1H-pyrazole-4-carbonyl)-piperidin-1-yl]-2-methyl-4-oxo-butyl}-3H-quinazolin-4-one] | 4.7e-09 | – | – | – | –
CC(C)n1cc(C(=O)C2CCN(C(=O)C[C@H](C)Cc3nc4ccccc4c(=O)[nH]3)CC2)cn1 [Compound C5, 2-{(R)-4-[4-(1-Isopropyl-1H-pyrazole-4-carbonyl)-piperidin-1-yl]-2-methyl-4-oxo-butyl}-3H-quinazolin-4-one] | 3.9e-08 | – | – | – | –
CC(C)[C@H](CC(=O)N1CCC(C(=O)c2cnn(C)c2)CC1)Cc1nc2ccccc2c(=O)[nH]1 [Compound C8, 2-((S)-3-Methyl-2-{2-[4-(1-methyl-1H-pyrazole-4-carbonyl)-piperidin-1-yl]-2-oxo-ethyl}-butyl)-3H-quinazolin-4-one] | 9.2e-09 | – | – | – | –
CC(C)[C@@H](CC(=O)N1CCC(C(=O)c2cnn(C)c2)CC1)Cc1nc2ccccc2c(=O)[nH]1 [Compound C9, 2-((R)-3-Methyl-2-{2-[4-(1-methyl-1H-pyrazole-4-carbonyl)-piperidin-1-yl]-2-oxo-ethyl}-butyl)-3H-quinazolin-4-one] | 1.4e-07 | – | – | – | –
Cn1cc(C(=O)C2CCN(C(=O)CC3(Cc4nc5ccccc5c(=O)[nH]4)CC3)CC2)cn1 [Compound C12, 2-(1-{2-[4-(1-Methyl-1H-pyrazole-4-carbonyl)-piperidin-1-yl]-2-oxo-ethyl}-cyclopropylmethyl)-3H-quinazolin-4-one] | 2.3e-08 | 2.2e-09 | 1e-09 | – | –
Cn1cc(C(=O)C2CCN(C(=O)C(C)(C)CCc3nc4ccccc4c(=O)[nH]3)CC2)cn1 [Compound C13, 2-{3,3-Dimethyl-4-[4-(1-methyl-1H-pyrazole-4-carbonyl)-piperidin-1-yl]-4-oxo-butyl}-3H-quinazolin-4-one] | 2.3e-06 | 6.1e-07 | 4.2e-07 | – | –
Cn1cc(C(=O)C2CCN(C(=O)CCC(C)(C)c3nc4ccccc4c(=O)[nH]3)CC2)cn1 [Compound C14, 2-{1,1-Dimethyl-4-[4-(1-methyl-1H-pyrazole-4-carbonyl)-piperidin-1-yl]-4-oxo-butyl}-3H-quinazolin-4-one] | – | 6.3e-08 | 4.4e-08 | – | –
COc1ccc(C(=O)C2CCN(C(=O)CCC(C)(C)c3nc4ccccc4c(=O)[nH]3)CC2)cc1 [Compound C15, 2-{4-[4-(4-Methoxy-benzoyl)-piperidin-1-yl]-1,1-dimethyl-4-oxo-butyl}-3H-quinazolin-4-one] | 6.2e-08 | 9.2e-09 | 5e-09 | – | –
COc1ccc(C(=O)C2CCN(C(=O)CC(C)(C)Cc3nc4c(ccn4C)c(=O)[nH]3)CC2)cn1 [Compound C16, 2-{4-[4-(6-Methoxy-pyridine-3-carbonyl)-piperidin-1-yl]-2,2-dimethyl-4-oxo-butyl}-7-methyl-3,7-dihydro-pyrrolo[2,3-d]pyrimidin-4-one] | 4.1e-09 | 6.1e-10 | 4.1e-10 | – | –
CC(C)n1cc(C(=O)C2CCN(C(=O)CC(C)(C)Cc3nc4c(ccn4C)c(=O)[nH]3)CC2)cn1 [Compound C19, 2-{4-[4-(1-Isopropyl-1H-pyrazole-4-carbonyl)-piperidin-1-yl]-2,2-dimethyl-4-oxo-butyl}-7-methyl-3,7-dihydro-pyrrolo[2,3-d]pyrimidin-4-one] | 9.3e-09 | 1.3e-09 | 5.8e-10 | – | –
COc1ccc(C(=O)C2CCN(C(=O)COCc3nc4ccccc4c(=O)[nH]3)CC2)cc1 [Compound C23, 2-{2-[4-(4-Methoxy-benzoyl)-piperidin-1-yl]-2-oxo-ethoxymethyl}-3H-quinazolin-4-one] | 2.6e-08 | 6.3e-09 | 2.1e-09 | – | –
Cn1cc(C(=O)C2CCN(C(=O)COCc3nc4ccccc4c(=O)[nH]3)CC2)cn1 [Compound C24, 2-{2-[4-(1-Methyl-1H-pyrazole-4-carbonyl)-piperidin-1-yl]-2-oxo-ethoxymethyl}-3H-quinazolin-4-one] | 1e-07 | 2.7e-08 | 1.2e-08 | – | –
COc1ccc(C(=O)C2CCN(C(=O)COCc3nc4ccccc4c(=O)[nH]3)CC2)cn1 [Compound C25, 2-{2-[4-(6-Methoxy-pyridine-3-carbonyl)-piperidin-1-yl]-2-oxo-ethoxymethyl}-3H-quinazolin-4-one] | 6.4e-08 | 3.6e-08 | 1.2e-08 | – | –
COc1ccc(C(=O)C2CCN(C(=O)COCc3nc4c(F)cc(F)cc4c(=O)[nH]3)CC2)cc1 [Compound C26, 6,8-Difluoro-2-{2-[4-(4-methoxy-benzoyl)-piperidin-1-yl]-2-oxo-ethoxymethyl}-3H-quinazolin-4-one] | 2.3e-08 | 7.7e-09 | 3e-09 | – | –
Cn1cc(C(=O)C2CCN(C(=O)COCc3nc4c(F)cc(F)cc4c(=O)[nH]3)CC2)cn1 [Compound C27, 6,8-Difluoro-2-{2-[4-(1-methyl-1H-pyrazole-4-carbonyl)-piperidin-1-yl]-2-oxo-ethoxymethyl}-3H-quinazolin-4-one] | – | – | – | 2.9e-08 | 1.3e-08
COc1ccc(C(=O)C2CCN(C(=O)COCc3nc4c(F)cc(F)cc4c(=O)[nH]3)CC2)cn1 [Compound C28, 6,8-Difluoro-2-{2-[4-(6-methoxy-pyridine-3-carbonyl)-piperidin-1-yl]-2-oxo-ethoxymethyl}-3H-quinazolin-4-one] | 1e-07 | 3.4e-08 | 1.2e-08 | – | –
COc1ccc(C(=O)C2CCN(C(=O)NCCc3nc4ccccc4c(=O)[nH]3)CC2)cc1 [Compound C29, 4-(4-Methoxy-benzoyl)-piperidine-1-carboxylic acid [2-(4-oxo-3,4-dihydro-quinazolin-2-yl)-ethyl]-amide] | – | 1.8e-09 | 8.4e-10 | – | –
COc1ccc(C(=O)C2CCN(C(=O)N(C)CCc3nc4ccccc4c(=O)[nH]3)CC2)cc1 [Compound C30, 4-(4-Methoxy-benzoyl)-piperidine-1-carboxylic acid methyl-[2-(4-oxo-3,4-dihydro-quinazolin-2-yl)-ethyl]-amide] | – | 6.2e-10 | 5.7e-10 | – | –
CN(CCc1nc2ccccc2c(=O)[nH]1)C(=O)N1CCC(C(=O)c2cnn(C)c2)CC1 [Compound C31, 4-(1-Methyl-1H-pyrazole-4-carbonyl)-piperidine-1-carboxylic Acid methyl-[2-(4-oxo-3,4-dihydro-quinazolin-2-yl)-ethyl]-amide] | 2.3e-08 | 3e-09 | 2.2e-09 | – | –
CC(C)(CC(=O)N1CCC(C(=O)c2cccc(C(=O)O)c2)CC1)Cc1nc2ccccc2c(=O)[nH]1 [Compound C35, 3-{1-[3,3-Dimethyl-4-(4-oxo-3,4-dihydro-quinazolin-2-yl)-butyryl]-piperidine-4-carbonyl}-benzoic Acid] | 5.5e-06 | – | – | – | –
Cc1cccc2c(=O)[nH]c(CC(C)(C)CC(=O)N3CCC(C(=O)c4cccc(C(=O)O)c4)CC3)nc12 [Compound C37, 3-{1-[3,3-Dimethyl-4-(8-methyl-4-oxo-3,4-dihydro-quinazolin-2-yl)-butyryl]-piperidine-4-carbonyl}-benzoic Acid] | 4.8e-07 | – | – | – | –
COC(=O)c1cccc(C(=O)C2CCN(C(=O)C[C@H](C)Cc3nc4c(C)cccc4c(=O)[nH]3)CC2)c1 [Compound C42, 3-{1-[(R)-3-Methyl-4-(8-methyl-4-oxo-3,4-dihydro-quinazolin-2-yl)-butyryl]-piperidine-4-carbonyl}-benzoic Acid Methyl Ester] | 2.5e-08 | – | – | – | –
COC(=O)c1cccc(C(=O)C2CCN(C(=O)C[C@@H](C)Cc3nc4c(C)cccc4c(=O)[nH]3)CC2)c1 [Compound C43, 3-{1-[(S)-3-Methyl-4-(8-methyl-4-oxo-3,4-dihydro-quinazolin-2-yl)-butyryl]-piperidine-4-carbonyl}-benzoic Acid Methyl Ester] | 4.7e-10 | – | – | – | –
Cc1cccc2c(=O)[nH]c(C[C@@H](C)CC(=O)N3CCC(C(=O)c4cccc(C(=O)O)c4)CC3)nc12 [Compound C44, 3-{1-[(R)-3-Methyl-4-(8-methyl-4-oxo-3,4-dihydro-quinazolin-2-yl)-butyryl]-piperidine-4-carbonyl}-benzoic Acid] | 5.3e-06 | – | – | – | –
Cc1cccc2c(=O)[nH]c(C[C@H](C)CC(=O)N3CCC(C(=O)c4cccc(C(=O)O)c4)CC3)nc12 [Compound C45, 3-{1-[(S)-3-Methyl-4-(8-methyl-4-oxo-3,4-dihydro-quinazolin-2-yl)-butyryl]-piperidine-4-carbonyl}-benzoic acid] | 8.9e-08 | – | – | – | –
